Source: article PMC7217030 (Journal of medicinal chemistry, 2018)

Columns and labels:
ovariectomized mice [1] = assay: Object recognition task; conditions: for preference for novel object vs chance, object recognition: IP injection
[2] = target: T1, glucocorticoid receptor (GR) LBD fused to GAL4 DBD (Homo sapiens, UniProt P04150); assay: GeneBLAzer nuclear hormone receptor specificity assay, agonist mode, GR; format: cell-based; conditions: 0.25 to 25 μM
T1 sequence (P04150 524-758 limits assumed): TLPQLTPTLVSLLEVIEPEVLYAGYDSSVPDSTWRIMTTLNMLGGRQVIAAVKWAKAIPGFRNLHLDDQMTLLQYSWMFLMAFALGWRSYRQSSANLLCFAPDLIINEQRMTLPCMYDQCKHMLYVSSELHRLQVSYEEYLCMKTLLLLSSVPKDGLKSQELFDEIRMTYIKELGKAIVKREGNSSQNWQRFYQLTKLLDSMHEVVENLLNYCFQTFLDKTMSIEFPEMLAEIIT

ERα LBD = target: T2, ERα LBD (Homo sapiens, UniProt P03372); assay: LanthaScreen TR-FRET coactivator; format: biochemical
T2 sequence (P03372 311-547 limits assumed): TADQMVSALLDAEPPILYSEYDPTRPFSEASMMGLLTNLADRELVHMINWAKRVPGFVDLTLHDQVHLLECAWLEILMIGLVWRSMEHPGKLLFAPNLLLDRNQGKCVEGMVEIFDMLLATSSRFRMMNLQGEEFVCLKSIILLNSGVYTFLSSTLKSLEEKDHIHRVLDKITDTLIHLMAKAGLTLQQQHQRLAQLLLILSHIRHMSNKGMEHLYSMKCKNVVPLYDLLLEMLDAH

ovariectomized mice [3] = assay: Object placement task; conditions: for time with moved object vs chance, object placement: tested 24 h after training; for preference for moved object vs chance, object placement: within 1 month of ovariectomy
CYP1A2 = target: T3, CYP1A2 (Homo sapiens, UniProt P05177); assay: P450-Glo cytochrome P450 inhibition, CYP1A2; format: in vitro ADME; conditions: highest concentration 62.5 μM
T3 sequence (P05177 1-516): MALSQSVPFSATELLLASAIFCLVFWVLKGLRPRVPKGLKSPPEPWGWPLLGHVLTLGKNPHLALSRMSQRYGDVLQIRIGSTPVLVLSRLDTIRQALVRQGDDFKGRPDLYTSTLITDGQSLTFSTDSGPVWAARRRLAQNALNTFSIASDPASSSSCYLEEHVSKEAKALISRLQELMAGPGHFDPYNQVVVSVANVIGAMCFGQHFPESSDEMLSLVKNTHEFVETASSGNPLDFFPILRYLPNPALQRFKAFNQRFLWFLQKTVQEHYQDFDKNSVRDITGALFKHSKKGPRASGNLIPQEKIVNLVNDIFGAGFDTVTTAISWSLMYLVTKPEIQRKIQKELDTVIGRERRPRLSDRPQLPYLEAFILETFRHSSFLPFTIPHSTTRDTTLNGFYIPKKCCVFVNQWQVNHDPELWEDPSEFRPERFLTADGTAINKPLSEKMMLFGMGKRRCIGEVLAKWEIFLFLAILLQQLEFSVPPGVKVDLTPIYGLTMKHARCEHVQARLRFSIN

[4] = target: T4, vitamin D receptor (VDR) LBD fused to GAL4 DBD (Homo sapiens, UniProt P11473); assay: GeneBLAzer nuclear hormone receptor specificity assay, agonist mode, VDR; format: cell-based; conditions: 0.25 to 25 μM
T4 sequence (P11473 127-423 limits assumed): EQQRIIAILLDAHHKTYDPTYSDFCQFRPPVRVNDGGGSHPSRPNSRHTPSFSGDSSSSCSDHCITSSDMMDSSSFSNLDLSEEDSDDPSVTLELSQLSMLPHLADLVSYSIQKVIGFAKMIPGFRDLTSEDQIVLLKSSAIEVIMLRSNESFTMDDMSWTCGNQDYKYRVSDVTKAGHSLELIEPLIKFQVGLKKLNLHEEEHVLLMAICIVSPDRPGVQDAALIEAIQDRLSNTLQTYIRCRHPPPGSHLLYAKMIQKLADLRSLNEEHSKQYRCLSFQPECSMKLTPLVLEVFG

[5] = target: T5, thyroid hormone receptor (TRβ) LBD fused to GAL4 DBD (Homo sapiens, UniProt P10828); assay: GeneBLAzer nuclear hormone receptor specificity assay, agonist mode, TRβ; format: cell-based; conditions: 0.25 to 25 μM
T5 sequence (P10828 217-461 limits assumed): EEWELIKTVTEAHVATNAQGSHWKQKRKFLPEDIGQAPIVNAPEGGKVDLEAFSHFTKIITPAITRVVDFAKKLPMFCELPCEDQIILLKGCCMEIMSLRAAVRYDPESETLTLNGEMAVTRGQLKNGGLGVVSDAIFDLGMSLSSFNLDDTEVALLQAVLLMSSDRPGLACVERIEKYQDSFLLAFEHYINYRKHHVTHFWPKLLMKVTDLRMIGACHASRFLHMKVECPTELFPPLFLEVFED

CYP2D6 = CYP2D6 (Homo sapiens, UniProt P10635); assay: P450-Glo cytochrome P450 inhibition, CYP2D6; format: in vitro ADME; conditions: highest concentration 62.5 μM
[6] = target: T6, mineralocorticoid receptor (MR) LBD fused to GAL4 DBD (Homo sapiens, UniProt P08235); assay: GeneBLAzer nuclear hormone receptor specificity assay, agonist mode, MR; format: cell-based; conditions: 0.25 to 25 μM
T6 sequence (P08235 726-964 limits assumed): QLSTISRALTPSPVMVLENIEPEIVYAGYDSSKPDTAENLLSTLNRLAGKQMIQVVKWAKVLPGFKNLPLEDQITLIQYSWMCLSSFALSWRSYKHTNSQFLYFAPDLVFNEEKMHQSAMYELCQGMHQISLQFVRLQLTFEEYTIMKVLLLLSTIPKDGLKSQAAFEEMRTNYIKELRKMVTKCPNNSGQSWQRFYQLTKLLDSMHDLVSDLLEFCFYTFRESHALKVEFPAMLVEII

[7] = target: T7, androgen receptor (AR) LBD fused to GAL4 DBD (Homo sapiens, UniProt P10275); assay: GeneBLAzer nuclear hormone receptor specificity assay, agonist mode, AR; format: cell-based; conditions: 0.25 to 25 μM
T7 sequence (P10275 669-900 limits assumed): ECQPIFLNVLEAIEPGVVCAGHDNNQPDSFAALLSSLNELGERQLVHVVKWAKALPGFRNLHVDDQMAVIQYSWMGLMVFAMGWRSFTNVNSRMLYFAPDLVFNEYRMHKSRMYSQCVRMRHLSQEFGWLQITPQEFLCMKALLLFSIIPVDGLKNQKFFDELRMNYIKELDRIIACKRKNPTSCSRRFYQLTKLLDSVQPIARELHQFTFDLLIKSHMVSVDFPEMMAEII

[8] = target: T8, progesterone receptor (PR) LBD fused to GAL4 DBD (Homo sapiens, UniProt P06401); assay: GeneBLAzer nuclear hormone receptor specificity assay, agonist mode, PR; format: cell-based; conditions: 0.25 to 25 μM
T8 sequence (P06401 679-913 limits assumed): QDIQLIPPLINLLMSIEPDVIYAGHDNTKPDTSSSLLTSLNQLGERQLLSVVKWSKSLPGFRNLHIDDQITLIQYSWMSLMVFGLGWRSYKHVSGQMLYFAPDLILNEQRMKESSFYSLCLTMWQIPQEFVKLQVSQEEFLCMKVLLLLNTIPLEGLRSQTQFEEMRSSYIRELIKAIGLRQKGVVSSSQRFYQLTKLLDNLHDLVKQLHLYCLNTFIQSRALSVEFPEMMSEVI

[9] = target: T9, full length and native ERα (Homo sapiens, UniProt P03372); assay: Cell-based transcriptional assay, ERα antagonist mode; conditions: concentrations up to 10 μM
T9 sequence (P03372 1-595): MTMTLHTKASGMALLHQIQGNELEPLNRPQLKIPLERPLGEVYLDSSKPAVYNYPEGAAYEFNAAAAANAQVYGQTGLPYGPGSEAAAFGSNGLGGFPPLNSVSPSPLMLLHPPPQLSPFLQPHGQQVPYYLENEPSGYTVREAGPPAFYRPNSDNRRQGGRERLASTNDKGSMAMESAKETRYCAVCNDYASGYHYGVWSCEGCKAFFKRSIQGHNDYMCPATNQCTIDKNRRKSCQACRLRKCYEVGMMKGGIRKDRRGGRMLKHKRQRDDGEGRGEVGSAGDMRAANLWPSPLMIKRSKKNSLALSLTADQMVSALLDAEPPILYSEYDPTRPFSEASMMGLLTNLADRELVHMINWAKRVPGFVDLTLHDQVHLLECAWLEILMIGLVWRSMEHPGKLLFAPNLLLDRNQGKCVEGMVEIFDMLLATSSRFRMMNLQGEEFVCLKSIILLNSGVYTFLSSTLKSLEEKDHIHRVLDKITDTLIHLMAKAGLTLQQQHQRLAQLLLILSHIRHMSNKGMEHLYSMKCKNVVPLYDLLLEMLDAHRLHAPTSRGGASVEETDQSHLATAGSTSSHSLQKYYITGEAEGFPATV

[10] = target: T10, peroxisome proliferator-activated receptor (PPARδ) LBD fused to GAL4 DBD (Homo sapiens, UniProt Q03181); assay: GeneBLAzer nuclear hormone receptor specificity assay, agonist mode, PPARδ; format: cell-based; conditions: 0.25 to 25 μM
T10 sequence (Q03181 211-439 limits assumed): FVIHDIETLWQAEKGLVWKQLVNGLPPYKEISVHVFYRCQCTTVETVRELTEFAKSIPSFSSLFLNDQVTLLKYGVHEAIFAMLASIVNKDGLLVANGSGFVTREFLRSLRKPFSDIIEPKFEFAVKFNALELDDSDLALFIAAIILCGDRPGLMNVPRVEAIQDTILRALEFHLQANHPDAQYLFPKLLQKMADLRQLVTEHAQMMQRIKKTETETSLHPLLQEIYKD

CYP2D6, sequence (P10635 whole entry, the tested form may be a part): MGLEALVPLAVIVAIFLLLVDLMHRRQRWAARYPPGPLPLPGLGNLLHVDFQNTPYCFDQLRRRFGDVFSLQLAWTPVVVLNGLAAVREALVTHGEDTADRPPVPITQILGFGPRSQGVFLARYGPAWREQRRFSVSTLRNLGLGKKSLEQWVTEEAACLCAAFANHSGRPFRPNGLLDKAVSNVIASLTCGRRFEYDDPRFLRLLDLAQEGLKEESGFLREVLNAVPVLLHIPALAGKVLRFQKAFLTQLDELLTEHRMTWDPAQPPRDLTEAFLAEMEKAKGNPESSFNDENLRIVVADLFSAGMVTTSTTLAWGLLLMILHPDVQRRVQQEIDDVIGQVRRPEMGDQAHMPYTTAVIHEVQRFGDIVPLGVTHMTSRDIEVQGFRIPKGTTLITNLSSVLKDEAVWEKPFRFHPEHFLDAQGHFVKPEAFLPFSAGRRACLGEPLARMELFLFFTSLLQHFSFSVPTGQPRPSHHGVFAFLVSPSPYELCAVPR

agonist activity at GR [2]: not an agonist | EC50 (ERα LBD): 2.94 µM | inhibition of CYP1A2 (CYP1A2): no inhibition | agonist activity at VDR [4]: not an agonist | agonist activity at TRβ [5]: not an agonist | inhibition of CYP2D6 (CYP2D6): no inhibition | agonist activity at MR [6]: not an agonist | agonist activity at AR [7]: not an agonist | agonist activity at PR [8]: not an agonist | ERα antagonist activity [9]: No measurable antagonist activity | agonist activity at PPARδ [10]: not an agonist
Structure (SMILES): OC[C@H]1CC[C@H](c2ccc(O)cc2)CC1 [ISP358–2]
preference for novel object vs chance, object recognition (ovariectomized mice [1]; 0.5 mg/kg, tested 48 h after training): exhibited a significant preference for the novel object relative to chance | preference for novel object vs chance, object recognition (ovariectomized mice [1]; 5 mg/kg, tested 48 h after training): somewhat of a trend for the 5 mg/kg ISP358–2 to prefer the novel object | time with novel object vs chance, object recognition (ovariectomized mice [1]; dorsal hippocampal infusion, 10 pg/hemisphere, tested 48 h after training): Neither the vehicle nor 10 pg of ISP358–2 groups showed a preference for the novel object | time with novel object vs chance, object recognition (ovariectomized mice [1]; dorsal hippocampal infusion, 100 pg/hemisphere, tested 48 h after training): spent significantly more time than chance with the novel object | time with novel object vs chance, object recognition (ovariectomized mice [1]; dorsal hippocampal infusion, 1 ng/hemisphere, tested 48 h after training): spent significantly more time than chance with the novel object | time with novel object vs chance, object recognition (ovariectomized mice [1]; oral gavage, 0.5 mg/kg): spent significantly more time with the novel object relative to chance | time with novel object vs chance, object recognition (ovariectomized mice [1]; oral gavage, 5 mg/kg): spent significantly more time with the novel object relative to chance | time with moved object vs chance, object placement (ovariectomized mice [3]; IP injection, 0.5 mg/kg): spent significantly more time than chance with the moved object | time with moved object vs chance, object placement (ovariectomized mice [3]; IP injection, 5 mg/kg): spent significantly more time than chance with the moved object | time with moved object vs chance, object placement (ovariectomized mice [3]; dorsal hippocampal infusion, 10 pg/hemisphere): did not spend significantly more time than chance with the moved object | time with moved object vs chance, object placement (ovariectomized mice [3]; dorsal hippocampal infusion, 100 pg/hemisphere): spent significantly more time than chance with the moved object | time with moved object vs chance, object placement (ovariectomized mice [3]; dorsal hippocampal infusion, 1 ng/hemisphere): spent significantly more time than chance with the moved object | preference for moved object vs chance, object placement (ovariectomized mice [3]; oral gavage, 0.5 mg/kg): exhibited a significant preference for the moved object relative to chance | preference for moved object vs chance, object placement (ovariectomized mice [3]; oral gavage, 5 mg/kg): exhibited a significant preference for the moved object relative to chance | spatial memory consolidation after long-term estrogen deprivation, object placement (ovariectomized mice [3]; oral gavage, same doses, 4 months after ovariectomy, preliminary): did not enhance spatial memory consolidation
